{"source": "patent EP3748362A1", "about": "“IN VITRO METHOD FOR DETECTING RENAL DISEASE” (Fundacion Instituto De Investigacion Sanitaria Fundacion …, priority 2019, dated 2020)", "key": {"[1]": {"test_system": "renal inflammation in experimental Unilateral Ureteral Obstruction (UUO)", "experiment": "Renal inflammation in unilateral ureteral obstruction (UUO) in mice", "type": "in vivo, C57BL/6 mice", "conditions": "obstructed kidneys (UUO), paricalcitol 750 ng/kg/day", "experimental": "(§1) All animal procedures were performed according to the guidelines of animal research in the European Community and with prior approval by the Ethics Committee of the Health Research of the IIS-Fundacion Jiménez Díaz. For in vivo studies, mice received a daily intraperitoneal injection of the VDRA Paricalcitol starting 48 hours prior to induction of kidney damage.\nAt the time of sacrifice, animals were anesthetized with 5 mg/kg xylazine (Rompun, Bayer AG) and 35 mg/kg ketamine (Ketolar, Pfizer) and the kidneys perfused in situ with cold saline before removal. […]\nParaffin-embedded kidney sections (3 µm) were stained using conventional methods. […] For each sample (processed by duplicate in a blinded manner), the average value was obtained from the analysis of 4 fields (20X objective) as density/mm2 or percentage stained area vs total analyzed area. Data are expressed as fold increase over control mice, as mean ± SEM of 8-10 animals per group. […]\nTotal RNA was isolated from cells and mouse kidney samples with Trizol (Invitrogen). […] The mRNA copy numbers were calculated for each sample by the instrument software using Ct value. Results are expressed in copy numbers, calculated relative to unstimulated cells or control mice, after normalization against 18S."}, "TRAF3": {"test_system": "TRAF3", "experiment": "TRAF3 western blot in TWEAK-stimulated HK2 cells", "type": "cell-based, Human", "conditions": "paricalcitol 15 umol/L 48 hours before TWEAK 100 ng/ml for 24 hours", "experimental": "Human kidney proximal tubule epithelial cells (HK2 cell line, ATCC CRL-2190) were grown in RPMI 1640 with 10% fetal bovine serum (FBS), 1% glutamine, 100 U/ml penicillin, 100 µg/ml streptomycin, 5 µg/ml insulin-transferrin-selenite and 36 ng/ml hydrocortisone in 5% CO2 at 37° C. When cells reached 60 to 70% confluence, they were serum-depleted for 24 hours before the experiment.\nCells were stimulated with 100ng/ml recombinant human soluble TWEAK (Millipore) or p-200 µg/ml cresyl-sulfate (Raymond Vanholder and Griet Glorieux, University of Gent, Belgium). Concentrations of TWEAK and p-cresyl-sulfate were based on previously published dose-response experiments (Poveda et al. 2014; Sanz et al. 2008). […] DMSO, used as a solvent in some cases, had no effect on cell viability or on gene expression levels.\n(§2) For western blot, cell (25 µg/lane) and kidney (100-150 µg/lane) protein extracts were separated on 6%-12% polyacrylamide-SDS gels under reducing conditions. […] Autoradiographs were scanned using the Gel Doc™ EZ imager and analyzed with the Image Lab 3.0 software (BioRad)."}, "NF-κB1": {"test_system": "NF-κB1", "experiment": "Canonical NF-κB1 activation, folic acid-induced renal injury in mice", "type": "in vivo", "conditions": "folic acid 300 mg/kg model; paricalcitol 25 µg/kg/day i.p.", "experimental": "as §1\nAt the time of sacrifice, animals were anesthetized with 5 mg/kg xylazine (Rompun, Bayer AG) and 35 mg/kg ketamine (Ketolar, Pfizer) and the kidneys perfused in situ with cold saline before removal. Then, kidney portions were fixed in formalin buffer for immunohistochemistry studies or immediately frozen in liquid nitrogen for gene and protein studies.\nFolic acid nephropathy is a classical model of kidney tubulointerstitial injury and inflammation that has been reported in humans. Mice received a single intraperitoneal injection of folic acid (Sigma) 300 mg/kg in 0.3 mol/l sodium bicarbonate or vehicle, and were sacrificed 48 hours later. […]\nas §2"}, "[2]": {"test_system": "CCL2, CCL5 and IL6, CCL21A and CCL19", "experiment": "Proinflammatory gene expression (real time PCR) in TWEAK-stimulated PBMCs from healthy donors", "type": "cell-based, Human", "conditions": "15 µmol/L paricalcitol 48 hours, TWEAK 100 ng/mL 6 hours"}}, "data": [{"smiles": "C[C@H](/C=C/[C@H](C)C(C)(C)O)[C@H]1CC[C@H]2/C(=C/C=C3C[C@@H](O)C[C@H](O)C3)CCC[C@]12C", "note": "[paricalcitol]", "values": [{"measurement": "inflammatory cell infiltration", "setting": "[1]; 5 days after UUO", "result": "prevented"}, {"measurement": "increased expression of proinflammatory factors, such as CCL2, CCL5, IL6", "setting": "[1]; real time PCR", "result": "prevented"}, {"measurement": "TWEAK-induced TRAF3 protein levels", "setting": "TRAF3", "result": "restored TWEAK-induced TRAF3 protein levels to values similar to control-untreated cells"}, {"measurement": "NF-κB1 activation, evaluated by IκB-α phosphorylation", "setting": "NF-κB1", "result": "not modified"}, {"measurement": "TWEAK-induced upregulation of several proinflammatory genes, such as CCL2, CCL5 and IL6, as well as the NF-κB2-controlled genes CCL21A and CCL19", "setting": "[2]", "result": "inhibited"}]}]}
